US20030144255A1, “Compositions for prevention and treatment of dementia” (priority 2002, published 2003)

How the values were obtained:
aged rats [1] = test: Morris water maze learning test in aged rats; type: in vivo, rat; conditions: aged male rats of transgenic strain, test started on day 20 of treatment, vs control group
Procedure: (§1) Male (3 to 27 months old) rats of transgenic strain were used. The aged rats were divided into the following four groups.
(§2) 1) Control group: Repeated administration of placebo pill.
(§3) 2) 4,4′-diaminodiphenylsulphone group: Repeated oral administration of 4,4 -diaminodiphenylsulphone 1 mg/kg.
(§4) 3) Cholinesterase inhibitor group: Repeated oral administration of donepezil 0.3 mg/kg.
(§5) 4) Combination group: Repeated oral administration of 4,4′-diaminodiphenylsulphone 3 mg/kg and donepezil 0.3 mg/kg.
(§6) In the combination group, 4,4′-diaminodiphenylsulphone was administered 30 minutes after administration of donepezil.
(§7) Passive avoidance learning test was started on day 14 of treatment, and Morris water maze learning test on day 20 of treatment.
(§8) On each day of experiment, 4,4′-diaminodiphenylsulphone and a cholinesterase inhibitor were administered 30 minutes and 1 hour, respectively, before initiation of the trial.
Same animals used in the passive avoidance test were subjected for the water maze task. However, some rats can not swim well in the water tank, thus they were excluded in the water maze task. The water maze learning test was performed on young rats (saline, 10 animals) and aged rats (control group, 9 animals; 4,4′-diaminodiphenylsulphone group, 9 animals; Compound B group, 8 animals; combination group, 8 animals). […]

aged rats [2] = test: Passive avoidance learning test in aged rats; type: in vivo, rat; conditions: aged male rats of transgenic strain, test started on day 14 of treatment, vs control group
Procedure: as §1, §2, §3, §4, §5, §6, §7, §8
The passive avoidance learning test was performed using a chamber consisting of light and dark compartments. […]
In each trial, the latency from opening of the slide door until the animal moved to the dark compartment (step-through latency) was measured.

In the case of `Nc1ccc(S(=O)(=O)c2ccc(N)cc2)cc1` [4,4′-diaminodiphenylsulphone], the “water maze learning deficit (latency to find platform submerged in the water)” value (aged rats [1]; repeated oral 1 mg/kg) is reported as “significant improvement in water maze learning deficit” and the “passive avoidance learning deficit (step-through latency / avoidance time)” value (aged rats [2]; repeated oral 1 mg/kg) is reported as “significant improvement of the learning deficit”.

For `COc1cc2c(cc1OC)C(=O)C(CC1CCN(Cc3ccccc3)CC1)C2.Cl` (stereo not shown) [donepezil, 2,3-dihydro-5,6-dimethoxy-2-[[1-(phenylmethyl)-4-piperidinyl]methyl]-1H-inden-1-one hydrochloride], the “water maze learning deficit (latency to find platform submerged in the water)” value (aged rats [1]; repeated oral 0.3 mg/kg) was “significant improvement in water maze learning deficit” and the “passive avoidance learning deficit (step-through latency / avoidance time)” value (aged rats [2]; repeated oral 0.3 mg/kg) was “significant improvement of the learning deficit”.
